Earlier results on one compound are cited in patent publication EP4781989A1, “POSACONAZOLE SOLID DISPERSION AND PREPARATION METHOD THEREFOR” (BEIJING DELIVERY PHARMACEUTICAL TECHNOLOGY CO., LTD, priority 2023, dated 2024).

Molecules are shown by their SMILES. Where two headings read alike, the source gives them in different places.

For the compound `CC[C@@H]([C@H](C)O)n1ncn(-c2ccc(N3CCN(c4ccc(OC[C@@H]5CO[C@@](Cn6cncn6)(c6ccc(F)cc6F)C5)cc4)CC3)cc2)c1=O` [Posaconazole], the solubility entry was “less than 1 µg/mL” (at about pH 6.4 or higher) and “about 0.8 mg/mL” (gastric environment with about pH 1).
